Columns and labels:
Adenosine A2 receptor [1] = target: Adenosine A2 receptor (Homo sapiens, UniProt P29275+P29274)
Description: Inhibition of the stimulation by 5'-(N-ethylcarbamoyl) adenosine of adenyl cyclase via adenosine A2 receptor in human platelet membranes.

Adenosine receptor A1 [2] = target: T1, Adenosine receptor A1 (Rattus norvegicus, UniProt P25099); assay: Inhibition of 1 nM [3H]- N6 -(phenylisopropyl) adenosine binding to Adenosine A1 receptor in rat fat cell membrane; format: cell-based
T1 sequence (P25099 whole entry): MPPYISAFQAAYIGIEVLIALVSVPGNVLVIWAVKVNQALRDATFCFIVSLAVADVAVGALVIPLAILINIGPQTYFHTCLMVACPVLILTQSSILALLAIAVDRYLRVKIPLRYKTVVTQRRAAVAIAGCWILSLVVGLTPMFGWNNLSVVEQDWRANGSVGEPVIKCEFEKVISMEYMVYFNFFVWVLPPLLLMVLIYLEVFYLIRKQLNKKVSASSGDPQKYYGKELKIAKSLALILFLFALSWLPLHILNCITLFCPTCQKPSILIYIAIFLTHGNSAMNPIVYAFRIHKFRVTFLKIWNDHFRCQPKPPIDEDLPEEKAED

Adenosine receptor A1 [3] = target: T1, Adenosine receptor A1; assay: Inhibition of 1 nM [3H]- N6-(phenylisopropyl) adenosine binding to Adenosine A1 receptor in rat cerebral cortical membranes; format: cell membranes, Membrane
Adenosine A2 receptor [4] = target: Adenosine A2 receptor (Rattus norvegicus, UniProt P29276+P30543); details: pc-12
Description: Inhibition of the stimulation by 5'-(N-ethylcarbamoyl) adenosine of adenyl cyclase via Adenosine A2 receptor in rat PC12 membranes

Adenosine receptor A1 [5] = target: T1, Adenosine receptor A1; assay: Inhibition of […] nM [3H]- N6- (phenylisopropyl) adenosine binding to Adenosine A1 receptor in rat cerebral cortical membranes; I = Inactive; format: cell membranes, Membrane
Adenosine receptor A1 [6] = target: T1, Adenosine receptor A1; assay: Inhibition of N6-(phenylisopropyl)adenosine-elicited inhibition of adenylate cyclase at Adenosine A1 receptor in rat fat cell membrane; I =inactive
Adenosine receptor A1 [7] = target: T1, Adenosine receptor A1; assay: Inhibition of […] nM [3H]- N6- (phenylisopropyl) adenosine binding to A1 adenosine receptor in rat cerebral cortical membranes; format: cell membranes, Membrane
Adenosine receptor A1 [8] = target: T1, Adenosine receptor A1; assay: Inhibition of N6-(phenylisopropyl)adenosine-elicited inhibition of adenylate cyclase at A1 adenosine receptor in rat fat cell membrane
Adenosine receptor A1 [9] = target: T1, Adenosine receptor A1; assay: Inhibition of […] nM [3H]- N6- (phenylisopropyl) adenosine binding to Adenosine A1 receptor

Row | SMILES | Ki (Adenosine A2 receptor [1]) [µM] | Ki (Adenosine receptor A1 [2]) [µM] | Ki (Adenosine receptor A1 [3]) [µM] | Ki (Adenosine A2 receptor [4]) [µM] | other results
1 | Cn1c(=O)c2nc(-c3ccc(C(=O)O)cc3)[nH]c2n(C)c1=O | 1.5 |  |  |  | 
2 | CC(C)CCn1c(=O)c2nc[nH]c2n(CC(C)C)c1=O | 6.5 |  | 1.6 |  | 
3 | COC(=O)c1ccc(-c2nc3c(c(=O)n(C)c(=O)n3C)n2C)cc1 | 25 |  | 43 |  | 
4 | CCCn1c(=O)[nH]c(=O)c2[nH]c(C3CCCCC3)nc21 | 1.1 |  | 0.85 |  | 
5 | CC(C)CCn1c(=O)c2nc(-c3ccc(S(=O)(=O)O)cc3)[nH]c2n(CC(C)C)c1=O | 0.52 |  | 1.2 |  | 
6 | CCCn1c(=O)[nH]c(=O)c2[nH]c(-c3ccc(C(=O)O)cc3)nc21 | 14 |  | 57 |  | 
7 | CCCn1c(=O)[nH]c(=O)c2[nH]c(-c3ccc(S(=O)(=O)O)cc3)nc21 | 2.7 | 33 | 58 | 17 | 
8 | Cn1c(=O)c2c(nc(C3CCCCC3)n2C)n(C)c1=O | 0.19 |  |  |  | 
9 | Cn1c(=O)c2nc(C3CCCCC3)[nH]c2n(C)c1=O | 0.15 | 0.041 | 0.11 | 0.45 | 
10 | Cn1c(=O)c2c(nc(C3CCCC3)n2C)n(C)c1=O | 2.4 | 14.9 | 33 | 3.8 | 
11 | Cn1c(=O)c2nc(-c3ccc(S(=O)(=O)O)cc3)[nH]c2n(C)c1=O | 5.5 |  |  | 5 | 
12 | Cn1c(=O)[nH]c2[nH]c(-c3ccccc3)nc2c1=O | 0.86 |  |  | 0.25 | Ki (Adenosine receptor A1 [7]): 0.3 µM; Ki (Adenosine receptor A1 [8]): 0.13 µM
13 | Cn1c(=O)[nH]c2[nH]cnc2c1=O [1-METHYLXANTHINE] | 1.9 |  |  |  | Ki (Adenosine receptor A1 [9]): 17 µM
14 | Cn1c(=O)[nH]c(=O)c2[nH]cnc21 [3-METHYLXANTHINE] | 240 |  | 35 |  | 

Second part, led by results:

Row | Ki (Adenosine A2 receptor [1]) [µM] | Ki (Adenosine receptor A1 [2]) [µM] | Ki (Adenosine receptor A1 [3]) [µM] | Ki (Adenosine A2 receptor [4]) [µM] | SMILES | other results
15 |  | 1.6 | 0.71 |  | CCCn1c(=O)c2nc[nH]c2n(CCC)c1=O | 
16 |  | 0.0059 |  |  | CCCn1c(=O)c2[nH]c(-c3ccccc3)nc2n(CCC)c1=O | 
17 | 2.3 |  |  |  | CC(C)CCn1c(=O)c2nc(-c3ccccc3)[nH]c2n(CC(C)C)c1=O | 
18 | 2.1 | 4.9 | 15 | 5.6 | CCCn1c(=O)c2c(nc(-c3ccc(S(=O)(=O)O)cc3)n2C)n(CCC)c1=O | 
19 | 11 |  | 9.8 |  | CCCn1c(=O)[nH]c(=O)c2[nH]c(-c3ccccc3)nc21 | 
20 | 150 |  | 61 |  | Cn1c(=O)c2c(nc(-c3ccc(C(=O)O)cc3)n2C)n(C)c1=O | 
21 | 57 |  |  | 150 | Cn1c(=O)c2c(nc(-c3ccc(S(=O)(=O)O)cc3)n2C)n(C)c1=O | Ki (Adenosine receptor A1 [5]): Not Active; Ki (Adenosine receptor A1 [6]): Not Active
22 | 14 |  | 15 |  | Cn1c(=O)c2c(nc(-c3ccccc3)n2C)n(C)c1=O | 
23 | 26 |  | 3.1 |  | CCCn1c(=O)c2c(nc(-c3ccc(C(=O)OC)cc3)n2C)n(CCC)c1=O | 
24 | 0.085 | 4.2 |  | 1 | CCCn1c(=O)c2c(nc(C3CCCCC3)n2C)n(CCC)c1=O | 
25 | 0.22 |  |  |  | CCCn1c(=O)c2c(nc(C3CCCC3)n2C)n(CCC)c1=O | 
26 | 2.4 |  | 2.3 |  | CCCn1c(=O)c2c(nc(-c3ccccc3)n2C)n(CCC)c1=O | 
27 | 0.02 | 0.036 | 0.067 | 0.073 | CCCn1c(=O)[nH]c2[nH]c(-c3ccccc3)nc2c1=O | 
28 | 13 |  | 4.8 |  | CCCn1c(=O)c2c(nc(-c3ccc(C(=O)O)cc3)n2C)n(CCC)c1=O | 
29 | 2.8 | 12 | 3.4 | 5.3 | CCCn1c(=O)c2c(ncn2C)n(CCC)c1=O | 
30 | 1.9 | 0.43 | 0.14 | 11 | CCCn1c(=O)c2nc(-c3ccc(S(=O)(=O)O)cc3)[nH]c2n(CCC)c1=O | 
31 |  |  | 0.2 |  | CCCn1c(=O)c2nc(-c3ccc(C(=O)O)cc3)[nH]c2n(CCC)c1=O | 
32 | 1.9 |  |  | 1.6 | Cn1c(=O)c2nc(-c3ccccc3)[nH]c2n(C)c1=O [8-PHENYL THEOPHYLLINE] | 
